Measured values from ChEMBL document CHEMBL1201862, “PubChem BioAssay data set” (2004).
Activity calls are given as the source filed them.

Legend:
[1] = target: Sphingosine 1-phosphate receptor 2 (Homo sapiens, UniProt O95136); assay: Dose Response Cell Based Assay for Antagonists of the S1P2 Receptor. [Related pubchem assays: 856, 736 ]; assay type: functional
[2] = target: T1, Kappa-type opioid receptor (Homo sapiens, UniProt P41145); assay type: functional
[3] = target: Beta-galactosidase (Escherichia coli, UniProt Q8VNN2); assay type: functional
[4] = target: T1, Kappa-type opioid receptor; assay type: functional; remark: listed apart in the source
[5] = target: T2, Heat shock factor protein 1 (Mus musculus, UniProt P38532); assay: enhancement of HSF1-driven luciferase signal – cell-based, NIH3T3, luminescence, dose retest, confirmation (AID 435004); assay type: functional;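 note: stress induced by proteasome inhibitor MG132 added 30 min after compound; luciferase reporter driven by HSF1 response element in NIH3T3 cells; actives raise luminescence as potentiators of the MG132 stress response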
T2 sequence (P38532 whole entry): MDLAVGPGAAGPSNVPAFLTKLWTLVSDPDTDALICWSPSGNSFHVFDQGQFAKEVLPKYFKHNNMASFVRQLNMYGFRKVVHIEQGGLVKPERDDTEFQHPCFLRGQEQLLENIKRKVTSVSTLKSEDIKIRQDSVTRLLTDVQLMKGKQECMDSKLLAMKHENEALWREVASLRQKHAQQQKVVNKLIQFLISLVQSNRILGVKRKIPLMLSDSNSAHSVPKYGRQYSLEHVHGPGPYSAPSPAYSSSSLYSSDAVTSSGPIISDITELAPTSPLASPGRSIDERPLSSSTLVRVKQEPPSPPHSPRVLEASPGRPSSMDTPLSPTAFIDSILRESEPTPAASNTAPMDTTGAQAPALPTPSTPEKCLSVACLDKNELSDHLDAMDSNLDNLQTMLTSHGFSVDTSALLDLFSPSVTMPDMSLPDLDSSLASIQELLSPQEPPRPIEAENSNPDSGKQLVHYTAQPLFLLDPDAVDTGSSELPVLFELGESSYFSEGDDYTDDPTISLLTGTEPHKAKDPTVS

[6] = target: Heat shock protein HSP 90-alpha (Homo sapiens, UniProt P07900); assay type: functional, organism-based
[7] = target: Protein Rev (Human immunodeficiency virus type 1 group M subtype B (isolate HXB2)(HIV-1), UniProt P04618); assay: blockers of HIV Rev/RRE RNA complex – biochemical, fluorescence polarization, HIV-1, dose response (AID 434976); design: species or system Human immunodeficiency virus 1
[8] = target: Female germline-specific tumor suppressor gld-1 (Caenorhabditis elegans, UniProt Q17339); assay: blockers of GLD-1/TGE RNA complex formation – biochemical, fluorescence polarization, C. elegans, dose response (AID 2802);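 note: fluorescence polarization of labeled TGE RNA bound by purified gld-1 protein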
[9] = target: T3, Endoribonuclease toxin MazF (Escherichia coli K-12, UniProt P0AE70); assay: activation of MazEF endoribonuclease cleavage – biochemical, fluorescence, single-stranded RNA substrate, uHTS hits, dose response (AID 588481); assay type: functional
T3 sequence (P0AE70 whole entry): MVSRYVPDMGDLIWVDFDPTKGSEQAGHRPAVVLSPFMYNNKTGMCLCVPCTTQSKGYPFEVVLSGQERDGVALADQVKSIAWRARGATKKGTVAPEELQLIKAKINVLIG

[10] = target: T3, Endoribonuclease toxin MazF; assay: substrate-only fluorescence increase artefacts – biochemical, single-stranded RNase substrate, counter-screen for MazEF activator project, dose response (AID 588502); assay type: functional
[11] = target: T4, SUMO-activating enzyme (Homo sapiens, UniProt Q9UBT2); assay: blockers of UBC9-mediated SUMO conjugation – biochemical, AlphaScreen, SUMOylation inhibitor project, confirmation (AID 2018); assay type: functional
[12] = target: T4, SUMO-activating enzyme; assay: blockers of SAE1/SAE2–UBC9 SUMO transfer – biochemical, HTRF, uHTS, primary screen (AID 2006); assay type: protein-complex assay
[13] = target: Induced myeloid leukemia cell differentiation protein Mcl-1 (Homo sapiens, UniProt Q07820); assay type: functional
Sequence of Induced myeloid leukemia cell differentiation protein Mcl-1 (Q07820 whole entry): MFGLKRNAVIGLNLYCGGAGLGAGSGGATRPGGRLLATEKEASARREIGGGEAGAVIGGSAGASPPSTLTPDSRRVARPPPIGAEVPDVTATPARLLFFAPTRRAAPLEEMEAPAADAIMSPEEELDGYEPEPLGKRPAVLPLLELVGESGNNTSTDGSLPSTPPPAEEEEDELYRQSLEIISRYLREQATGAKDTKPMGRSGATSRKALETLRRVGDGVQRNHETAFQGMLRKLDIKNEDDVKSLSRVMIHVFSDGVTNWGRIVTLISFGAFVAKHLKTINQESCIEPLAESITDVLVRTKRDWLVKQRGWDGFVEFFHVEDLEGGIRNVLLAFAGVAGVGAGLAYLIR

T4 sequence (Q9UBE0 whole entry): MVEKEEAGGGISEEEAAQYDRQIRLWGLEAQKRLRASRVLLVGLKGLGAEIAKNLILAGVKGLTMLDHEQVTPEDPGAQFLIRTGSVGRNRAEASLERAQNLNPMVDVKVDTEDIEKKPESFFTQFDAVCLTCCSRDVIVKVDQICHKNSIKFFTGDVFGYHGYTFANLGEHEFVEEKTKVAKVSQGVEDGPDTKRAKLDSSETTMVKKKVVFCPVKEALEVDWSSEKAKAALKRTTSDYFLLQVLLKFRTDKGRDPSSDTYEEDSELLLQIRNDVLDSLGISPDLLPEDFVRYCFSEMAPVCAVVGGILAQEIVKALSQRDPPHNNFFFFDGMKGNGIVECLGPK
T4 sequence (Q9UBT2 whole entry): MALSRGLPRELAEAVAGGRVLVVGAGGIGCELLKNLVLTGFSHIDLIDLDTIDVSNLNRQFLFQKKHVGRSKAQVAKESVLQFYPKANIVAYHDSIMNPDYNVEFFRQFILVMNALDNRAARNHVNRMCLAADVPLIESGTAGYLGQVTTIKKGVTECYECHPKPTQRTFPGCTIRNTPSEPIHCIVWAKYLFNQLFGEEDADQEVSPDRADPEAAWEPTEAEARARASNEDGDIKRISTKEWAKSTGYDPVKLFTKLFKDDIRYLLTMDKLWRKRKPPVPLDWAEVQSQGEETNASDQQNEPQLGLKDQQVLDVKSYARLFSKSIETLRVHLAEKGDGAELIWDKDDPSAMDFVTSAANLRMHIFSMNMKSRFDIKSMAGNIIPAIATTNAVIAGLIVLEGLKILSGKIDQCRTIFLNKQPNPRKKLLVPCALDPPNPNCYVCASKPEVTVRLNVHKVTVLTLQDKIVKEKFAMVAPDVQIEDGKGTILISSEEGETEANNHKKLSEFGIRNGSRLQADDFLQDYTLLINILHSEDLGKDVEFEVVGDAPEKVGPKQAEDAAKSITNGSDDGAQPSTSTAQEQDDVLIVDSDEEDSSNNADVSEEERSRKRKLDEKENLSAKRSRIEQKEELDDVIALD
T1 sequence (P41145 whole entry): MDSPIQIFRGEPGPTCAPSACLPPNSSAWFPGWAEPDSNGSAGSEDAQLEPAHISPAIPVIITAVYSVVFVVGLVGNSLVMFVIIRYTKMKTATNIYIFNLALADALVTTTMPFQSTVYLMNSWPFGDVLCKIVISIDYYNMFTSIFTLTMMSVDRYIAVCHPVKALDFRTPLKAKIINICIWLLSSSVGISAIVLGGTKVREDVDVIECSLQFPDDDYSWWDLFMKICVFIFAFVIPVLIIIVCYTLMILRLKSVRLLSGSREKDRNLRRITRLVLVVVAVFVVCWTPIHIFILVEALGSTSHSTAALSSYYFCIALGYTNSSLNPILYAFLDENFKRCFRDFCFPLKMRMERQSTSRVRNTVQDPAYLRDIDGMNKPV
Sequence of Beta-galactosidase (Q8VNN2 whole entry): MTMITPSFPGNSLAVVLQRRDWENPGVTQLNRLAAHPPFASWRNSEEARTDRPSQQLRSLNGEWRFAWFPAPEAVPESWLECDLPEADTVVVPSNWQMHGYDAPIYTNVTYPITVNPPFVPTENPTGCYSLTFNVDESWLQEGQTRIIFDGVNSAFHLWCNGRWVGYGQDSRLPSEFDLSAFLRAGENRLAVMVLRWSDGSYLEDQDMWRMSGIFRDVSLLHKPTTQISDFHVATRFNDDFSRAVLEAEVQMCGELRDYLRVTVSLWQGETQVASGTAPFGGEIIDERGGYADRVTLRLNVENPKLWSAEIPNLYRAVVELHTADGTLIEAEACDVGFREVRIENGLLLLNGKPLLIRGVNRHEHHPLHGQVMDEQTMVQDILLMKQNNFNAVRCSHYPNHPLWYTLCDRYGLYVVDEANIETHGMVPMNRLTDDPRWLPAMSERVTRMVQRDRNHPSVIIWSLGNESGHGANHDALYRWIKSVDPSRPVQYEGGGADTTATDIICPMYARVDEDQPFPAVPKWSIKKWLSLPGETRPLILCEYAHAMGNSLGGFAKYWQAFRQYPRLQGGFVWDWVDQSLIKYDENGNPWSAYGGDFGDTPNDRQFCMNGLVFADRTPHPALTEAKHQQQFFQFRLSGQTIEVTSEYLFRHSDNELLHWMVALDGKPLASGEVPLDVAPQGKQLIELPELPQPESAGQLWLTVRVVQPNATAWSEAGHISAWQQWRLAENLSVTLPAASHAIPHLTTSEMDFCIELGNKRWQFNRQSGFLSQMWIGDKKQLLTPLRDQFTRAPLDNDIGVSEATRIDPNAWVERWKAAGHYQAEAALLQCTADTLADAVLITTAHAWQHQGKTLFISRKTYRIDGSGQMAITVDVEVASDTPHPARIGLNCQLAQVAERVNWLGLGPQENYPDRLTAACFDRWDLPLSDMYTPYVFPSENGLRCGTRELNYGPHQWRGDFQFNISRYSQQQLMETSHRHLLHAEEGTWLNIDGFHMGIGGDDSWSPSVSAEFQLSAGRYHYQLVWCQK
Sequence of Sphingosine 1-phosphate receptor 2 (O95136 whole entry): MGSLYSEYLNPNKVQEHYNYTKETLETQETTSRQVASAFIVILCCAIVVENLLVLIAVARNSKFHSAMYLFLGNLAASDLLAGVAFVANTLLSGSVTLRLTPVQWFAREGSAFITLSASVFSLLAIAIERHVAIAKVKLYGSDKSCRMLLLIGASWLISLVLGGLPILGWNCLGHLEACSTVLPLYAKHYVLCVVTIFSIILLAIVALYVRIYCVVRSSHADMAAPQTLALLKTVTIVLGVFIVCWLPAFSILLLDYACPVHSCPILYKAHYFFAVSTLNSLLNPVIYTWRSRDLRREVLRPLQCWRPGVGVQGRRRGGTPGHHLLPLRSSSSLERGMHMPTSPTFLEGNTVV
Sequence of Female germline-specific tumor suppressor gld-1 (Q17339 whole entry): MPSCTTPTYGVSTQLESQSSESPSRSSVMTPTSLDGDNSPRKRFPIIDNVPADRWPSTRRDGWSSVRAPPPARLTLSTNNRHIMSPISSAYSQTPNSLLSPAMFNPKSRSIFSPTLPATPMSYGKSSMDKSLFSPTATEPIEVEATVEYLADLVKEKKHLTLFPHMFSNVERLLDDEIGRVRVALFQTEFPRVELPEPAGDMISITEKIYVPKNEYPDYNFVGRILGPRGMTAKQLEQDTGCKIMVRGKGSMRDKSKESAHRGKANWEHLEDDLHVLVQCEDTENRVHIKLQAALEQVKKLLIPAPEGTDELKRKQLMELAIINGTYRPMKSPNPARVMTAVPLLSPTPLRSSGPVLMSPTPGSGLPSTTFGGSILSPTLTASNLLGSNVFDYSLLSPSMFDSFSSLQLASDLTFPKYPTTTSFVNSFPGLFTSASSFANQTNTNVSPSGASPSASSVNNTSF
Sequence of Protein Rev (P04618 whole entry): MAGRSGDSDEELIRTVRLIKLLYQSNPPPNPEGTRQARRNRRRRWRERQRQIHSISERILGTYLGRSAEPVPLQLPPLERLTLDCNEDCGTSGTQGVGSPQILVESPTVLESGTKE

**Q.** Which IC50 [1] does the source give for `O=C(C#Cc1cccc([N+](=O)[O-])c1)c1ccccc1` here?
**A.** 3.69 µM (active)

**Q.** What about the IC50 [2] of the same compound?
**A.** 22.8 µM (inactive)

**Q.** And the EC50 [3]?
**A.** > 31.5 µM (inactive)

**Q.** And the IC50 [4]?
**A.** > 32 µM

**Q.** What about the EC50 [5] of the same compound?
**A.** 1.08 µM (inconclusive)

**Q.** And the AC50 [6]?
**A.** 0.592 µM (active)

**Q.** `COc1ccc(N2CCCC2)c(NC(=O)c2ccc(Br)o2)c1` was tested. Which IC50 [7] did it give?
**A.** > 75.4 µM (not active)

**Q.** What about the IC50 [8] of the same compound?
**A.** 21.3 µM (inactive)

**Q.** And the EC50 [9]?
**A.** > 99 µM (inactive)

**Q.** And the EC50 [10]?
**A.** > 99 µM (inactive)

**Q.** What does the source list for `Cc1cc(=O)oc2cc(OCc3ccc(C(=O)OCC(=O)Nc4ccc(N(C)C)cc4)cc3)ccc12`?
**A.** IC50 [11]: 36.3 µM (active); IC50 [12]: 22.1 µM (active); IC50 [13]: 6.17 µM (active)
